{"source": "ChEMBL document CHEMBL1201862", "about": "“PubChem BioAssay data set” (2004)", "key": {"[1]": {"target": "T1, Corticotropin-releasing factor receptor 2/Corticotropin-releasing factor-binding protein (Homo sapiens, UniProt P24387+Q13324)", "T1 sequence (Q13324 whole entry)": "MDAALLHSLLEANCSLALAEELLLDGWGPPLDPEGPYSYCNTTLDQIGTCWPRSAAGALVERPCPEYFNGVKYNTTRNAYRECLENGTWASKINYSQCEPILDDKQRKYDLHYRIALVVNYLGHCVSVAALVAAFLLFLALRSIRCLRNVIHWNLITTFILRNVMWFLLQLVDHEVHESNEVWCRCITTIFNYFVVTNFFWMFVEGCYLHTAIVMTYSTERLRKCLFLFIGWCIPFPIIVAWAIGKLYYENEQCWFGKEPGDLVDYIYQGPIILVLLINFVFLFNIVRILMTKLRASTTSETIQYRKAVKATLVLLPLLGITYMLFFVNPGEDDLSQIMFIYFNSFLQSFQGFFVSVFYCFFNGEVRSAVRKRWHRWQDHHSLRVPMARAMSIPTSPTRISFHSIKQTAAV", "T1 sequence (P24387 whole entry)": "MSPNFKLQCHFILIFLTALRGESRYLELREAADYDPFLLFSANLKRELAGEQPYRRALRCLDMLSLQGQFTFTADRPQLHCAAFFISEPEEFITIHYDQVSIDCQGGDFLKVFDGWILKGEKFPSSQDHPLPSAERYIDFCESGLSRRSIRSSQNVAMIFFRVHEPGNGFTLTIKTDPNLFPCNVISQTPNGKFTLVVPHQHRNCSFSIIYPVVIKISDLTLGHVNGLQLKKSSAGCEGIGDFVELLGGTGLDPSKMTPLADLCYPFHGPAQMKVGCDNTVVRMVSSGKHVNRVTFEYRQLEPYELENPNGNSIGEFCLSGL", "assay": "Dose Response confirmation of uHTS hits for small molecule antagonists of the CRF-binding protein and CRF-R2 receptor complex.", "format": "functional", "conditions": "read-out: IC50_Mean"}, "[2]": {"target": "T1, Corticotropin-releasing factor receptor 2/Corticotropin-releasing factor-binding protein", "assay": "activators of CRF receptor 2 with binding protein – uHTS hits, confirmation (AID 602473)", "format": "functional", "conditions": "read-out: EC50_Mean"}, "[3]": {"assay": "CRF-BP/CRF-R2 complex antagonists, dose response, cell-based, uHTS hits, 384-well (AID 651639)", "format": "functional, Homo sapiens", "conditions": "read-out: IC50_Mean"}, "[4]": {"target": "DNA dC->dU-editing enzyme APOBEC-3G (Homo sapiens, UniProt Q9HC16)", "sequence (Q9HC16 whole entry)": "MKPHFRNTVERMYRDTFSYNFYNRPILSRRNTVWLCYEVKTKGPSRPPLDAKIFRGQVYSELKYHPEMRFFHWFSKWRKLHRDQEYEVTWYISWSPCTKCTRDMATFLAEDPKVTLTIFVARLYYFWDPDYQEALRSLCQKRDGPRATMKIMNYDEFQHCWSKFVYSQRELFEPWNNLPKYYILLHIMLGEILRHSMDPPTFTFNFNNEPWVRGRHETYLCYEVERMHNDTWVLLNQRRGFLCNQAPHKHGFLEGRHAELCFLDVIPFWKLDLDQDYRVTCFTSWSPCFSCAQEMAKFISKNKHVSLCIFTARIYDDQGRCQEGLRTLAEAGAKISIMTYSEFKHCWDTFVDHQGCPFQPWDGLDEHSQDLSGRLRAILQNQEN", "assay": "Dose Response confirmation of small molecule APOBEC3G DNA Deaminase Inhibitors via a fluorescence-based single-stranded DNA deaminase assay. [Related pubchem assays (depositor defined):AID493012, AID493028]", "format": "functional"}, "[5]": {"target": "T2, Carboxy-terminal domain RNA polymerase II polypeptide A small phosphatase 1 (Homo sapiens, UniProt Q9GZU7)", "T2 sequence (Q9GZU7 whole entry)": "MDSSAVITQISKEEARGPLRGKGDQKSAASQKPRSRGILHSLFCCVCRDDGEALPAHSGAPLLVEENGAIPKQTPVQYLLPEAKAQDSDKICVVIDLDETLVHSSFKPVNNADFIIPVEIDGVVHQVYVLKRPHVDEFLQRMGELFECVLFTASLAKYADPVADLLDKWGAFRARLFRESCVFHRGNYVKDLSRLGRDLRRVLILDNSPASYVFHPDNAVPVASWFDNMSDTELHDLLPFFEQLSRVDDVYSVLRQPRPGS", "assay": "inhibitors of CTDSP1, concentration-response testing, biochemical assay, absorbance-based, actives from ultra-high-throughput screening (AID 540297)", "format": "functional"}, "[6]": {"system": "Vero", "assay": "host cell cytotoxicity of antiviral hits, dose response, cytotoxicity control for West Nile virus antiviral project, secondary assay (AID 1650)", "format": "functional", "conditions": "Chlorocebus sabaeus"}, "[7]": {"assay": "P. falciparum Dd2 growth inhibitors, dose response, SYBR Green, cherry-picked samples (AID 1159567)", "format": "functional, cell-based"}, "[8]": {"target": "Cytochrome P450 2C9 (Homo sapiens, UniProt P11712)", "sequence (P11712 whole entry)": "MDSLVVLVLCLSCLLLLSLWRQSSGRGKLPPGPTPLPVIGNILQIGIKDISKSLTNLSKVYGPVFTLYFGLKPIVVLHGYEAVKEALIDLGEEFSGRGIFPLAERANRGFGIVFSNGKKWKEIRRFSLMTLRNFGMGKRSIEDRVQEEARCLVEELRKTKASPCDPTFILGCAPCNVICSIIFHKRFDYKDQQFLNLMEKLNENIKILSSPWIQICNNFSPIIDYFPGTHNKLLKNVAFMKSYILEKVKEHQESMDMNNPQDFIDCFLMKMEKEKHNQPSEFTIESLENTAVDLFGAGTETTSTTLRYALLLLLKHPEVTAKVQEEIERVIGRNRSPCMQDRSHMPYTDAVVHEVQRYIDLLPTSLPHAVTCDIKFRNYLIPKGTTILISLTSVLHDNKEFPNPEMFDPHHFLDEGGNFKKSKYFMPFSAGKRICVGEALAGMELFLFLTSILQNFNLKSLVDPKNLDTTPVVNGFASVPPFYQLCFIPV"}, "[9]": {"assay": "A cytotoxicity screen of small molecule inhibitors of the PhoP region in Salmonella typhi identified in the primary screen. [Related pubchem assays: 1850, 1864, 1985 ]", "format": "functional"}, "[10]": {"system": "HEK293", "assay": "NOD1 signaling inhibitors, primary screen, cell-based, luminescence, uHTS (AID 1578)", "format": "functional", "conditions": "Homo sapiens"}, "[11]": {"system": "BJ", "assay": "cytotoxicity toward BJ-TERT fibroblasts, dose response, cell-based, RAS-independent, luminescence (AID 1933)", "format": "functional", "conditions": "Homo sapiens"}, "[12]": {"system": "HEK293", "assay": "cells", "format": "functional, cell-based", "conditions": "Homo sapiens"}, "[13]": {"system": "BJ", "assay": "cells", "format": "functional, cell-based", "conditions": "Homo sapiens"}, "[14]": {"system": "HEK293", "assay": "cells", "format": "functional, cell-based", "conditions": "Homo sapiens", "remark": "listed apart in the source"}, "[15]": {"system": "HEK293", "assay": "NOD2 signaling inhibitors in MDP-stimulated cells, cell-based, uHTS, luminescence (AID 2001)", "format": "functional", "conditions": "Homo sapiens"}, "[16]": {"assay": "microbe, parasite or virus in culture", "format": "functional", "conditions": "Mycobacterium tuberculosis"}, "[17]": {"system": "BJ", "assay": "cytotoxicity toward BJ-TERT-LT-ST fibroblasts, dose response, cell-based, RAS-independent, luminescence (AID 1935);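 further: BJ fibroblasts immortalized with TERT plus LT and ST oncogenes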", "format": "functional", "conditions": "Homo sapiens"}, "[18]": {"assay": "cytotoxicity toward DRD oncogenic fibroblasts, dose response, cell-based, non-viral oncogenic, luminescence (AID 1934)", "format": "functional", "conditions": "Homo sapiens"}, "[19]": {"assay": "Shn3 3'UTR reporter inhibitors, dose response, cell-based, Clone20 osteoblasts, firefly luciferase, cherry-picked (AID 624132)", "format": "functional"}, "[20]": {"assay": "control 3'UTR Renilla luciferase suppression, dose response, counter-screen for Shn3 inhibitor project, cell-based, Clone20-Shn3RL, cherry-picked (AID 624133)", "format": "functional"}, "[21]": {"target": "T3, Short transient receptor potential channel 4 (Mus musculus, UniProt Q9QUQ5)", "T3 sequence (Q9QUQ5 whole entry)": "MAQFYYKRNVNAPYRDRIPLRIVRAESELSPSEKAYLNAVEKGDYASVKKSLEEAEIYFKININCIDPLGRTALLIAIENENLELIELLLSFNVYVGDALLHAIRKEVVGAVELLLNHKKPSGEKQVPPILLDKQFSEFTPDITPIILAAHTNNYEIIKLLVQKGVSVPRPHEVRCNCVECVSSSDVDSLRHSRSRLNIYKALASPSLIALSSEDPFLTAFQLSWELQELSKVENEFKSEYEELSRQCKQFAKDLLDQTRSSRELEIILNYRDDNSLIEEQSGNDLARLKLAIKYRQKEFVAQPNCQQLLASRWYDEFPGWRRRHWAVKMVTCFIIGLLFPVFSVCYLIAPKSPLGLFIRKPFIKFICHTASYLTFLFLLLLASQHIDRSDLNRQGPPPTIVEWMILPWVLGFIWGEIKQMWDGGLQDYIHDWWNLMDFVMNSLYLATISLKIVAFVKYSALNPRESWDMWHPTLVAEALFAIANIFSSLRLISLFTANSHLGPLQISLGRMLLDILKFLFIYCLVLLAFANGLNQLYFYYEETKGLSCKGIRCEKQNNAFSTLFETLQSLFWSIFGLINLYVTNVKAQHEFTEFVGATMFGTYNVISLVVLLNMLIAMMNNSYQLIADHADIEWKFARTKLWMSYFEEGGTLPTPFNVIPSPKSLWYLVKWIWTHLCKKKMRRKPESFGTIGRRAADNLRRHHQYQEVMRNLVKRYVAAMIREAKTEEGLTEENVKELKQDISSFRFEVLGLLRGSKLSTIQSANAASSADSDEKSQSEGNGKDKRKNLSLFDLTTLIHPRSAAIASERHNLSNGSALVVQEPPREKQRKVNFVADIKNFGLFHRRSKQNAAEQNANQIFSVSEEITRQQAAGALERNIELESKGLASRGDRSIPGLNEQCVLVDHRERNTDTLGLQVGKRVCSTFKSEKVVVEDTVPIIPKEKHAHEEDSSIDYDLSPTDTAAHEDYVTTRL", "assay": "mouse TRPC4 channel inhibitors, dose response, cell-based, HEK293 TRPC4/mu-opioid, Fluo-4 calcium (AID 434942);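 further: potency of inhibitors blocking the TRPC4 calcium response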", "format": "functional"}}, "note": "The source made the active and inactive calls."}
{"smiles": "Cc1nc2ccccc2n1CC(O)COC1CCCCC1", "note": "(stereo not given)", "values": [{"measurement": "IC50", "setting": "[1]", "result": "41.8 µM (active)"}, {"measurement": "EC50", "setting": "[2]", "result": "> 53 µM (inactive)"}, {"measurement": "IC50", "setting": "[3]", "result": "8.02 µM (active)"}]}
{"smiles": "CCOc1ccc(C(=S)NC2CCCCC2)cc1OCC", "values": [{"measurement": "IC50", "setting": "[4]", "result": "55.7 µM (active)"}]}
{"smiles": "Cc1cccc(C)c1NC(=O)CN(C)C(=O)c1ccc2nc[nH]c2c1", "values": [{"measurement": "IC50", "setting": "[5]", "result": "28 µM (active)"}]}
{"smiles": "O=S(=O)(CC(CN1CCCCC1)N1CCCCC1)c1ccccc1", "note": "(stereo not given)", "values": [{"measurement": "CC50", "setting": "[6]", "result": "14.4 µM (active)"}]}
{"smiles": "CCC(=O)N1CCC2(CC1)CN(Cc1cc(F)ccc1F)[C@@H](CO)c1[nH]c3cc(OC)ccc3c12", "values": [{"measurement": "AC50", "setting": "[7]", "result": "4.19 µM (active)"}]}
{"smiles": "Clc1cnc(Oc2ccc(Oc3ncc(Cl)cc3Cl)cc2)c(Cl)c1", "values": [{"measurement": "IC50", "setting": "[1]", "result": "< 0.368 µM (active)"}, {"measurement": "EC50", "setting": "[2]", "result": "> 53 µM (inactive)"}, {"measurement": "IC50", "setting": "[3]", "result": "18 µM (active)"}, {"measurement": "AC50", "setting": "[8]", "result": "inconclusive"}]}
{"smiles": "Cc1cc(NC(=O)c2ccccc2)sc1C", "values": [{"measurement": "EC50", "setting": "[9]", "result": "> 50 µM (active)"}]}
{"smiles": "CC(CCc1ccco1)NC(=O)c1cccc2c1C(=O)N(C1CCCCC1)C2", "note": "(stereo not given)", "values": [{"measurement": "IC50", "setting": "[1]", "result": "< 0.368 µM (active)"}, {"measurement": "EC50", "setting": "[2]", "result": "> 53 µM (inactive)"}, {"measurement": "IC50", "setting": "[3]", "result": "> 20 µM (inactive)"}]}
{"smiles": "CCCc1cc(NC(=O)CCl)n(-c2ccccc2)n1", "values": [{"measurement": "EC50", "setting": "[10]", "result": "14.3 µM (active)"}, {"measurement": "EC50", "setting": "[11]", "result": "29.7 µM (active)"}, {"measurement": "IC50", "setting": "[12]", "result": "4.55 µM (active)"}, {"measurement": "EC50", "setting": "[13]", "result": "> 150 µM (not active)"}, {"measurement": "IC50", "setting": "[14]", "result": "> 20 µM (inactive)"}, {"measurement": "IC50", "setting": "[15]", "result": "11.1 µM (inactive)"}, {"measurement": "CC50", "setting": "[16]", "result": "17.4 µM (active)"}, {"measurement": "EC50", "setting": "[17]", "result": "> 150 µM (not active)"}, {"measurement": "EC50", "setting": "[18]", "result": "> 150 µM (not active)"}]}
{"smiles": "CC[C@]12c3[nH]c4cc(CCC(=O)N(C)C)ccc4c3CCN1C(=O)[C@@H](CC(=O)NC/C=C(\\C)CCC=C(C)C)C[C@@H]2C(=O)N1CCN(C(=O)c2ccco2)CC1", "values": [{"measurement": "AC50", "setting": "[19]", "result": "1.68 µM (active)"}, {"measurement": "AC50", "setting": "[20]", "result": "1.72 µM (active)"}]}
{"smiles": "O=C(CSc1nc(=O)n(CCN2CCOCC2)c2c1CCC2)Nc1ccc(OC(F)(F)F)cc1", "values": [{"measurement": "EC50", "setting": "[21]", "result": "7.5 µM (active)"}]}
{"smiles": "Cc1ccc(C)c2c(N)c3c(nc12)CCCCC3.O=C(O)c1cncc(Br)c1", "values": [{"measurement": "EC50", "setting": "[21]", "result": "0.944 µM (active)"}]}
{"smiles": "C[C@H](CO)N1C[C@H](C)[C@H](CN(C)C(=O)Nc2ccc(-c3ccccc3)cc2)OCc2ccccc2-c2c(n(C)c3ccccc23)C1=O", "values": [{"measurement": "AC50", "setting": "[7]", "result": "4.77 µM (active)"}]}
{"smiles": "Cc1ccc(C)c(OCCn2ccnc2)c1", "values": [{"measurement": "IC50", "setting": "[5]", "result": "5.06 µM (active)"}]}
